Where two headings read alike, the source gives them in different places.
Legend:
[1] = Pharmacokinetics of oxycodone in rabbits after intravenous and sublingual spray administration
[2] = cited from earlier work; for time to reach maximum plasma concentration: healthy volunteers
[3] = male, New Zealand albino, rabbit, plasma, iv, 100 ug

SMILES | Tmax ([1]; male, New Zealand albino, rabbit, plasma, 100 μg) [min] | bioavailability ([1]; male, New Zealand albino, rabbit, plasma, 100 μg, pH 4) [%] | bioavailability ([1]; male, New Zealand albino, rabbit, plasma, 100 μg, pH 9) [%] | AUC(0-inf) [1, 3] [µg·h/mL] | Cmax [1, 3] [µg/mL] | Tmax [1, 3] [min] | half-life [1, 3] [min] | terminal half-life after intravenous administration compared with sublingual administration ([1]; rabbits) | time to reach maximum plasma concentration ([2]; immediate release oral tablets) [h] | time to reach maximum plasma concentration ([2]; intramuscular) [h] | time to reach maximum plasma concentration ([2]; intranasal) [h] | bioavailability ([2]; oral, nasal and rectal, adults, compared with parenteral administration) | bioavailability ([2]; buccal and intranasal administration)
COc1ccc2c3c1O[C@H]1C(=O)CC[C@@]4(O)[C@@H](C2)N(C)CC[C@]314 [oxycodone, 4,5-epoxy-14-hydroxy-3-methoxy-1 7-methyl-5a-morphinan-6-one] | 20 | 45.4 ± 20.1 | 70.1 ± 17.9 | 0.213 | 0.185 | 0 | 67.8 | close to the terminal half-life after sublingual administration | 1.3 | 1.0 | 0.42 | 40-60% | –
COc1ccc2c3c1O[C@H]1C(=O)CC[C@@]4(O)[C@@H](C2)N(C)CC[C@]314.Cl [oxycodone hydrochloride] | – | – | – | – | – | – | – | – | – | – | – | – | around 55%

Source: patent US20090117054A1, “[…] FOR THE TREATMENT OF PAIN” (University of Kentucky Research Foundation, priority 2005, published 2009)
